Source: the NIST ThermoML archive (doi:10.1021/je050327l)
± gives the expanded uncertainty stated by the source.

Details: Liquid, Ebulliometric method (Recirculating still)

## CC(C=O)c1ccccc1 (stereo unspecified) [2-phenylpropanal]
373.1 K
  vapor or sublimation pressure: 3.056 ± 0.084 kPa
423.15 K
  vapor or sublimation pressure: 20.97 ± 0.14 kPa

## CCCC(=O)O [butanoic acid]
373.1 K
  vapor or sublimation pressure: 9.38 ± 0.13 kPa
413.15 K
  vapor or sublimation pressure: 45.85 ± 0.23 kPa

## C=CC [propene]
253.05 K
  vapor or sublimation pressure: 307.2 ± 2.2 kPa
293.15 K
  vapor or sublimation pressure: 1015.9 ± 4.4 kPa

## Oc1ccccc1 [phenol]
373.1 K
  vapor or sublimation pressure: 5.529 ± 0.11 kPa
423.15 K
  vapor or sublimation pressure: 39.18 ± 0.2 kPa

## COCC(C)O (stereo unspecified) [1-methoxy-2-propanol]
313.15 K
  vapor or sublimation pressure: 3.614 ± 0.093 kPa
353.15 K
  vapor or sublimation pressure: 24.18 ± 0.15 kPa

## CCC(=O)O [propanoic acid]
373.1 K
  vapor or sublimation pressure: 23.38 ± 0.23 kPa
413.15 K
  vapor or sublimation pressure: 96.29 ± 0.45 kPa

## CC[N+](=O)[O-] [nitroethane]
313.15 K
  vapor or sublimation pressure: 6.097 ± 0.11 kPa
353.15 K
  vapor or sublimation pressure: 33.11 ± 0.18 kPa

## COC [dimethyl ether]
253.05 K
  vapor or sublimation pressure: 125 ± 1.1 kPa
293.15 K
  vapor or sublimation pressure: 508.1 ± 2.2 kPa
